Measured values reported in ChEMBL document CHEMBL1201862, “PubChem BioAssay data set” (2004).
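Following 48 hours of exposure in 96-well plates, responses at five concentrations were used to interpolate endpoints linearly. Here, GI50 denotes the concentration required for 50% inhibition of growth.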 Active and inactive are the calls of the source. Cut-off read from the data, not from the text of the source: active = GI50 up to about 1.1 µM and inactive = higher. Residues, ends and D or L forms follow the SMILES beside them. *: point of attachment. Cbz = O=C(OCc1ccccc1)*; Boc = CC(C)(C)OC(=O)*; OSu = O=C1CCC(=O)N1O*; Bn = c1ccc(C*)cc1

Experiments:
Assay in all cases: NCI-60 cell line screen, 48 h
[1] = tested on: BT-549
[2] = tested on: MCF7
[3] = tested on: SW-620
[4] = tested on: SF-268
[5] = tested on: RPMI-8226
[6] = tested on: U-251
[7] = tested on: UO-31
[8] = tested on: OVCAR-8
[9] = tested on: NCI-H23
[10] = tested on: NCI-H460
[11] = tested on: SF-295
[12] = tested on: MDA-MB-231
[13] = tested on: HCT-15
[14] = tested on: SNB-75
[15] = tested on: SK-OV-3
[16] = tested on: HCT-116
[17] = tested on: CCRF-CEM
[18] = tested on: NCI-H522
[19] = tested on: A498

| Compound | GI50 [1] | GI50 [2] | GI50 [3] | GI50 [4] | GI50 [5] | GI50 [6] | GI50 [7] | GI50 [8] | GI50 [9] | GI50 [10] | GI50 [11] | GI50 [12] | GI50 [13] | GI50 [14] | GI50 [15] | GI50 [16] | GI50 [17] | GI50 [18] | GI50 [19] |
| --- | --- | --- | --- | --- | --- | --- | --- | --- | --- | --- | --- | --- | --- | --- | --- | --- | --- | --- | --- |
| C[C@H]1S[C@H](c2c(F)cccc2F)n2c1nc1ccccc12 | 52.8 µM (inactive) | 33.8 µM (inactive) | 88.1 µM (inactive) | 60.5 µM (inactive) | 37.5 µM (inactive) | 54.5 µM (inactive) | 34.4 µM (inactive) | 69 µM (inactive) | 34.8 µM (inactive) | 25.4 µM (inactive) | 39.1 µM (inactive) | 68.7 µM (inactive) | 47 µM | > 100 µM (inactive) | 38.4 µM (inactive) | 34.6 µM (inactive) | 40.5 µM (inactive) |  |  |
| CC(C)(C)OC(=O)NC(Cc1ccc(OCc2ccccc2)cc1)C(=O)NC(CCCCNC(=O)OCc1ccccc1)C(=O)NC(CCCCNC(=O)OCc1ccccc1)C(=O)ON1C(=O)CCC1=O (stereo not drawn) (Boc-Tyr(Bn)-Lys(Cbz)-Lys(Cbz)-OSu; configuration not given here) | 17.9 µM (inactive) | 18.9 µM (inactive) |  | 40.2 µM (inactive) | > 100 µM (inactive) | 16.3 µM (inactive) | > 100 µM (inactive) | 29.1 µM (inactive) | 28.6 µM (inactive) | 71.1 µM (inactive) | 24 µM (inactive) |  | > 100 µM | 51.6 µM (inactive) | > 100 µM (inactive) | 24.9 µM (inactive) | 66.2 µM (inactive) | 16.4 µM (inactive) |  |
| N#Cc1nc(CCc2nc(C#N)c(N)o2)oc1N | > 10 µM (inactive) | > 10 µM (inactive) | > 10 µM (inactive) | > 10 µM (inactive) | > 10 µM (inactive) |  | > 10 µM (inactive) | > 10 µM (inactive) | > 10 µM (inactive) | > 10 µM (inactive) | > 10 µM (inactive) | > 10 µM (inactive) | > 10 µM | > 10 µM (inactive) | > 10 µM (inactive) | > 10 µM (inactive) | > 10 µM (inactive) | > 10 µM (inactive) |  |
| CC1(C)CC(C)(C)C1=NNC(N)=O |  | > 100 µM (inactive) | > 100 µM (inactive) | > 100 µM (inactive) |  | > 100 µM (inactive) | > 100 µM (inactive) | > 100 µM (inactive) | > 100 µM (inactive) | > 100 µM (inactive) | > 100 µM (inactive) | > 100 µM (inactive) | > 100 µM | > 100 µM (inactive) | > 100 µM (inactive) | > 100 µM (inactive) | > 100 µM (inactive) | > 100 µM (inactive) | > 100 µM (inactive) |
| COc1ccc(C[C@H]2NC(=O)/C=C/C[C@@H]([C@H](C)[C@H]3O[C@@H]3c3ccccc3)OC(=O)[C@H](CC(C)C)OC(=O)[C@H](C)CNC2=O)cc1 |  | > 8.95e-05 µM (active) | 1.4e-05 µM (active) | 7.13e-05 µM (active) | 2.85e-05 µM (active) | 2.86e-05 µM (active) | 4.71e-05 µM (active) | 1.69e-05 µM (active) | 2.54e-05 µM (active) | 3.13e-05 µM (active) | 1.07e-05 µM (active) | 4.49e-05 µM (active) | 4.28e-05 µM | 1.47e-05 µM (active) | 2.06e-05 µM (active) | 1.57e-05 µM (active) | 1.75e-05 µM (active) | 1.05e-05 µM (active) | 2.15e-05 µM (active) |
| N#Cc1c(N2CCOCC2)ncn(-c2ccccc2)c1=O | > 100 µM (inactive) | > 100 µM (inactive) | > 100 µM (inactive) |  | > 100 µM (inactive) | > 100 µM (inactive) | 59.4 µM (inactive) | > 100 µM (inactive) | > 100 µM (inactive) | > 100 µM (inactive) | > 100 µM (inactive) |  | > 100 µM | > 100 µM (inactive) | > 100 µM (inactive) | > 100 µM (inactive) | > 100 µM (inactive) |  | > 100 µM (inactive) |
| C/C(CC(=O)Nc1ccc(Cl)c(Cl)c1)=N/NC(=O)C[n+]1ccccc1 |  |  |  | > 100 µM (inactive) | 32.3 µM (inactive) | > 100 µM (inactive) | > 100 µM (inactive) | > 100 µM (inactive) | > 100 µM (inactive) | 77.4 µM (inactive) | > 100 µM (inactive) |  | 30.5 µM |  | > 100 µM (inactive) | > 100 µM (inactive) | 85.3 µM (inactive) | 68.2 µM (inactive) | > 100 µM (inactive) |
| O=[N+]([O-])/C(C(Cl)=C(Cl)Cl)=C(/Cl)SCc1ccccc1 |  | 0.495 µM (active) | 2.18 µM (inactive) | 12.4 µM (inactive) | 0.889 µM (active) | 8.04 µM (inactive) | 2.22 µM (inactive) | 1.34 µM (inactive) | 6.03 µM (inactive) | 16.3 µM (inactive) | 34.4 µM (inactive) | 2.3 µM (inactive) | 5 µM | 1.02 µM (active) | 21.2 µM (inactive) | 1.82 µM (inactive) | 0.202 µM (active) | 2.78 µM (inactive) | 24.3 µM (inactive) |
